Source: ChEMBL document CHEMBL1821700, “SAR by interligand nuclear overhauser effects (ILOEs) based discovery of acylsulfonamide compounds active against Bcl-x(L) and Mcl-1” (J Med Chem, 2011)

Tests used:
[1] = target: T1, Bcl-2-like protein 1 (Homo sapiens, UniProt Q07817); assay: Displacement of FITC labeled Bak BH3 peptide from Bcl-xL after 10 mins by Fluorescence Polarization assay
[2] = target: Induced myeloid leukemia cell differentiation protein Mcl-1 (Homo sapiens, UniProt Q07820); assay: Displacement of FITC labeled Bak BH3 peptide from Mcl-1 after 2 mins by Fluorescence Polarization assay
Sequence of Induced myeloid leukemia cell differentiation protein Mcl-1 (Q07820 whole entry): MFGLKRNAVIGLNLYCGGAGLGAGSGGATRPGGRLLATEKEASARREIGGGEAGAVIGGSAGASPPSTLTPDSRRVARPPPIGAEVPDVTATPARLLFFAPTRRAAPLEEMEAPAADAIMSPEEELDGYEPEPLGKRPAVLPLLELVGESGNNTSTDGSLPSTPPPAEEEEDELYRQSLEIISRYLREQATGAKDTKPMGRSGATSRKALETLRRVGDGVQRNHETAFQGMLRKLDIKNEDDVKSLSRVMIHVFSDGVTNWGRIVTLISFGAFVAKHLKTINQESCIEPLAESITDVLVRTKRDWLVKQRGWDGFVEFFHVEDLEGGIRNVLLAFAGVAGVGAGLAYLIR

[3] = target: T1, Bcl-2-like protein 1; assay: Binding affinity to Bcl-xL by 2D- NOESY analysis

T1 sequence (Q07817 whole entry): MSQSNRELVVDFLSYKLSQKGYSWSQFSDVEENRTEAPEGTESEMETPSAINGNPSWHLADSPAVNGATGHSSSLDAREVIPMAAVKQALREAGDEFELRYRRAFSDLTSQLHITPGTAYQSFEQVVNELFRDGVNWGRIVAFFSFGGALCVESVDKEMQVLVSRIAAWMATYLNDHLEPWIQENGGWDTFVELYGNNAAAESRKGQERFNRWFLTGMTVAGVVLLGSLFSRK

SMILES	IC50 [1]	IC50 [2]	Kd [3]
N#Cc1c(Cl)cccc1Oc1ccc(S(=O)(=O)NC(=O)c2cccc(-c3ccc(Cl)c(Cl)c3)c2)cc1	2.7 µM	3.18 µM	–
O=C(NS(=O)(=O)c1ccc(COc2ccccc2)cc1)c1cccc(-c2ccccc2)c1	15.1 µM	25.4 µM	–
COc1ccc(-c2cccc(C(=O)NS(=O)(=O)c3ccc(Oc4ccccc4)cc3)c2)cc1OC	> 1000 µM	42.6 µM	–
O=C(NS(=O)(=O)c1ccc(Oc2ccccc2)cc1)c1cccc(-c2ccccc2)c1	28.5 µM	3.24 µM	–
Nc1ncccc1OCc1ccccc1	–	–	692 µM
O=C(NS(=O)(=O)c1ccc(COc2ccccc2)cc1)c1ccc(-c2ccc(Cl)cc2)cc1	3.79 µM	7.26 µM	–
O=C(NS(=O)(=O)c1ccc(OCc2ccccc2)cc1)c1ccc(-c2cc(Cl)cc(Cl)c2)cc1	3.19 µM	6.3 µM	–
O=C(NS(=O)(=O)c1ccc(COc2ccccc2)cc1)c1cccc(-c2ccc(C(F)(F)F)cc2)c1	6.2 µM	8.37 µM	–
CCOc1ccc(Oc2ccc(S(=O)(=O)NC(=O)c3cccc(-c4ccc(Cl)c(Cl)c4)c3)cc2)cc1	0.086 µM	0.14 µM	–
O=C(NS(=O)(=O)c1ccc(Oc2ccccc2)cc1)c1ccc(-c2ccc(F)cc2)cc1	33.5 µM	17.8 µM	–
O=C(NS(=O)(=O)c1ccc(COc2ccccc2)cc1)c1ccc(-c2ccccc2)cc1	16.8 µM	43.2 µM	–
O=C(NS(=O)(=O)c1ccc(Oc2cc(C(F)(F)F)cc(C(F)(F)F)c2)cc1)c1cccc(-c2ccc(Cl)c(Cl)c2)c1	2.94 µM	3.04 µM	–
O=C(NS(=O)(=O)c1ccc(Oc2ccccc2)nc1)c1cccc(-c2cc(Cl)cc(Cl)c2)c1	2.31 µM	9.78 µM	–
O=C(NS(=O)(=O)c1ccc(Oc2c(Cl)cccc2[N+](=O)[O-])cc1)c1cccc(-c2ccc(Cl)c(Cl)c2)c1	2 µM	3.04 µM	–
O=C(NS(=O)(=O)c1ccc(Oc2ccccc2)cc1)c1cccc(-c2ccc(Cl)cc2Cl)c1	1.94 µM	3.72 µM	–
O=C(NS(=O)(=O)c1ccc(Oc2ccccc2)cc1)c1cccc(-c2cc(Cl)cc(Cl)c2)c1	2.53 µM	7.11 µM	–
O=C(NS(=O)(=O)c1ccc(Oc2ccccc2)cc1)c1cccc(-c2ccc(Cl)c(Cl)c2)c1	1.97 µM	2.48 µM	–
O=C(NS(=O)(=O)c1ccc2ccccc2c1)c1cccc(-c2ccc(Cl)c(Cl)c2)c1	10.9 µM	13.2 µM	–
O=C(O)c1ccc(-c2ccc(F)cc2)cc1	–	–	300 µM

SMILES	IC50 [1]	IC50 [2]	Kd [3]
O=C(NS(=O)(=O)c1ccc(COc2ccccc2)cc1)c1ccc(-c2cc(Cl)cc(Cl)c2)cc1	4.14 µM	2.51 µM	–
Oc1cccc2c1CCCC2	–	–	4300 µM
O=C(NS(=O)(=O)c1ccc(COc2ccccc2)cc1)c1ccccc1-c1ccccc1	42.7 µM	> 1000 µM	–
O=C(NS(=O)(=O)c1ccc(COc2ccccc2)cc1)c1ccc(-c2ccc(F)cc2)cc1	9.37 µM	16.6 µM	–
COc1ccccc1Oc1ccc(S(=O)(=O)NC(=O)c2cccc(-c3ccc(Cl)c(Cl)c3)c2)cc1	3.76 µM	6.63 µM	–
O=C(NS(=O)(=O)c1ccc(COc2ccccc2)cc1)c1cccc(-c2ccc(Cl)c(Cl)c2)c1	7.15 µM	5.76 µM	–
O=C(NS(=O)(=O)c1ccc(COc2ccccc2)cc1)c1cccc(-c2ccc(Cl)cc2Cl)c1	9.98 µM	8.69 µM	–
O=C(NS(=O)(=O)c1ccc(Oc2ccccc2)cc1)c1cccc(-c2cccc(Cl)c2Cl)c1	4.08 µM	4.76 µM	–
O=C(NS(=O)(=O)c1ccc(-c2ccccc2)cc1)c1ccc(Oc2ccccc2)cc1	161 µM	> 1000 µM	–
O=C(NS(=O)(=O)c1ccc(COc2ccccc2)cc1)c1cccc(-c2cc(Cl)cc(Cl)c2)c1	0.31 µM	7.57 µM	–
O=C(NS(=O)(=O)c1ccc(Oc2ccccc2)cc1)c1ccc(-c2ccccc2)cc1	28 µM	3.56 µM	–
O=C(O)c1ccccc1N1CCCCC1	–	–	378 µM
O=C(NS(=O)(=O)c1ccc(Oc2ccc(F)cc2)cc1)c1cccc(-c2ccc(Cl)c(Cl)c2)c1	2.87 µM	3.91 µM	–
O=C(NS(=O)(=O)c1ccc(OCC2CCCCC2)cc1)c1cccc(-c2ccc(Cl)c(Cl)c2)c1	0.16 µM	0.62 µM	–
O=C(NS(=O)(=O)c1ccc(Oc2ccccc2)cc1)c1ccc(-c2cc(Cl)cc(Cl)c2)cc1	49.5 µM	5.08 µM	–
O=C(NS(=O)(=O)c1ccc(OCc2ccccc2)cc1)c1cccc(-c2cc(Cl)cc(Cl)c2)c1	0.18 µM	0.22 µM	–
CCCCOc1ccc(S(=O)(=O)NC(=O)c2cccc(-c3ccc(Cl)c(Cl)c3)c2)cc1	12.1 µM	38.8 µM	–
O=C(NS(=O)(=O)c1ccc(OCc2ccccc2)cc1)c1cccc(-c2ccc(Cl)c(Cl)c2)c1	2.96 µM	4.88 µM	–
